The source of these data is EPA's ToxValDB 9.5.

For series [1], the system named is Rattus norvegicus. As to conditions: oral; for NOAEL: drinking water.
For series [2], the system named is Oryctolagus sp. Conditions: developmental; oral; gavage; Prominent liver lobulation.
The subject of series [3] is Oryctolagus sp. Put plainly: LC60; higher = less toxic. As to conditions: acute; oral.
Series [4] relates to Rattus norvegicus. As to conditions: oral; for LD50: acute.
Series [5] has as its system Rattus norvegicus. Put plainly: LD5; higher = less toxic. As to conditions: developmental, oral, drinking water, M/F, Wistar.
Series [6] relates to Oryctolagus sp. Put plainly: LD40; higher = less toxic. Conditions: acute; dermal; occlusive.
A further series concerns Cavia porcellus. Conditions: uterotrophic; duration: 12 days; injection; subcutaneous; Guinea Pig; Active.
Series [7] has as its system Mus musculus. As to conditions: subchronic; inhalation; M/F; mortality.
Series [8] deals with Mus musculus. Nature of the series: FEL; higher = less toxic. Conditions: subchronic; inhalation; M/F; mortality.
The test system of series [9] is Mus musculus. As to conditions: chronic, duration: 92 days, inhalation, intermittent.
The subject of series [10] is Rattus norvegicus. Conditions: subchronic; duration: 90 days; oral; drinking water; M/F; Fischer 344; neurological.
In a further series the test system is Monkey. Conditions: chronic; duration: 363 days; oral; diet.
Series [11] concerns Mus musculus. As to conditions: oral, gavage, Swiss.
The test system of a further series is Canidae. As to conditions: short-term; duration: 22 days; oral; Beagle.
Series [12] has as its system Mus musculus. Conditions: chronic; duration: 2 years; oral; drinking water; M/F; B6C3F1; Hardarian gland & lung tumors (males).
For series [13], the system named is Rattus norvegicus. As to conditions: subchronic; duration: 90 days; oral; drinking water; Nerve: Damage.
For series [14], the system named is Mus musculus. Conditions: oral, diet, M/F, Swiss-Webster, neurological.
A further series concerns Dog, Mouse, Rat. Conditions: oral; Effects on the reproductive system and developing nervous system.
In series [15] the test system is Mus musculus. Conditions: developmental; oral; diet; M/F; Swiss-Webster; Nervous.
Where [16] appears, read: short-term, duration: 28 days, gavage, Sprague-Dawley.
[17] abbreviates: reproduction developmental, duration: 10 weeks, drinking water, F, Fischer 344.
[18] abbreviates: reproduction developmental, duration: 10 weeks, drinking water, M, Fischer 344.
Setting [19] is: reproduction developmental, duration: 80 days, drinking water, Long-Evans.

Structures are written as SMILES. Several values for one entry are separate records, joined by “and”; a condition that tells them apart may be missing. Equal entries are not always repeated.

Regarding `Cc1cc(C)[nH]c(=O)n1.O=C(Nc1ccc([N+](=O)[O-])cc1)Nc1ccc([N+](=O)[O-])cc1` [1,3-Bis(4-nitrophenyl)urea 4,6-dimethylpyrimidin-2-ol (1:1)], the NOEL in the series with Rattus norvegicus [1] (reproduction developmental, gavage, M/F, CD/CRJ, Maternal mortality & decreased bodyweight gain & feed consumption / decreased bodyweight & various malformations in offspring) was found to be 200 mg/kg-day. For the same compound, the NOAEL – broadly, the highest tested level that showed no adverse finding – in the series with Oryctolagus sp. [2] was determined as 60 mg/kg-day.
In the series with Oryctolagus sp. [3], `Cc1ccc(C)c(O)c1` [2,5-Dimethylphenol] returned an LC60 of 938 mg/kg. Further, in the series with Rattus norvegicus [4], the LD50 – broadly, the dose at which mortality reaches 50% – was 444 mg/kg.
The compound `CCC(C)O` (centres undefined) [2-Butanol] displayed an LD5 in the series with Rattus norvegicus [5] of 657 mg/kg-day.
`N#Cc1cccnc1` [3-Pyridinecarbonitrile]: in the series with Oryctolagus sp. [6], the LD40 is ≥ 2000 mg/kg and ≤ 4000 mg/kg. Moreover, the LD50 in the series with Rattus norvegicus [4] (gavage, Sprague-Dawley) was 1460 mg/kg and 1480 mg/kg. Besides, the LD50 in the series with Rattus norvegicus [4] (gavage, Wistar) was 1100 mg/kg. Besides, in the series with Rattus norvegicus [4] (setting [16]), the LOAEL (as a rule, the lowest tested level that showed an adverse finding) was 30 mg/kg-day and the NOAEL amounted to 5 mg/kg-day.
The compound `CC/C(=C(\c1ccc(O)cc1)c1ccc(OCCN(C)C)cc1)c1ccccc1` [4-Hydroxytamoxifen] gave an LEL with Cavia porcellus of 0.1 mg/day.
With `CC#N` [Acetonitrile], the NOAEL was 336 mg/m3 in the series with Mus musculus [7], 168 mg/m3 in the series on Mus musculus [9] (Blood: Decreased hematocrit + Erythrocytes: Decreased cell count + Liver: Hepatic lesions) and 168 mg/m3 in the series with Mus musculus [9] (Liver: Increased relative weight). This compound gave an FEL in the series with Mus musculus [8] of 672 mg/m3.
In the case of `C=CC(N)=O` [Acrylamide], the NOAEL in the series on Rattus norvegicus [10] was 0.2 mg/kg-day; in the series on Monkey, ≥ 1 mg/kg-day and ≤ 3 mg/kg-day; in the series on Rattus norvegicus [4] (chronic, duration: 93 days, drinking water, Fischer 344), 0.2 mg/kg-day; in the series with Rattus norvegicus [4] (chronic, drinking water, Fischer 344), 0.1 mg/kg-day; with Rattus norvegicus [4] (developmental, gavage, Sprague-Dawley / Mice: Swiss), 15 mg/kg-day; in the series with Rattus norvegicus [4] (setting [17]), 0.5 mg/kg-day. In addition, the NOAEL in the series on Rattus norvegicus [4] (reproduction developmental, duration: 10 weeks, drinking water, Long-Evans, generation: F0) turned out to be 5 mg/kg-day; with Rattus norvegicus [4] (setting [18]) it was 0.5 mg/kg-day; in the series on Rattus norvegicus [4] (setting [19]) it was 1.5 mg/kg-day; with Rattus norvegicus [4] (reproduction developmental, drinking water, Fischer 344, generation: F0), 0.5 mg/kg-day; in the series on Rattus norvegicus [4] (reproduction developmental, drinking water, Fischer 344, generation: F1), 2 mg/kg-day; in the series with Rattus norvegicus [4] (reproduction developmental, drinking water, Fischer 344, generation: F2) it was 2 mg/kg-day. In addition, the NOAEL in the series with Rattus norvegicus [4] (reproduction developmental, gavage, F, Sprague-Dawley / Mice: Swiss) was 2.5 mg/kg-day; in the series with Rattus norvegicus [4] (short-term, duration: 28 days, drinking water, Fischer 344) it was ≥ 4.1 mg/kg-day and ≤ 4.3 mg/kg-day; in the series on Rattus norvegicus [4] (subchronic, duration: 13 weeks, gavage, Fischer 344) it was 5 mg/kg-day; in the series with Mus musculus [11] (developmental), 15 mg/kg-day; in the series with Mus musculus [11] (reproduction developmental, F), 2.5 mg/kg-day; in the series on Canidae it was 5 mg/kg-day. The NOAEL in the series on Rattus norvegicus [1] (chronic, duration: 2 years, M/F, Fischer 344, neurotoxicity) is 0.67 mg/kg-day and 1.88 mg/kg-day. The results for the LOAEL in the series with Rattus norvegicus [4] (setting [17]), with Rattus norvegicus [4] (setting [18]) and in the series with Rattus norvegicus [4] (setting [19]) were 2 mg/kg-day, 2 mg/kg-day and 2.8 mg/kg-day, respectively. Moreover, the LOEL with Mus musculus [12] was determined as 1.05 mg/kg-day. Besides, the NOEL with Rattus norvegicus [13] came out at 0.2 mg/kg-day.
Turning to `[Al]` [Aluminum], the LOAEL with Mus musculus [14] (chronic, duration: 24 months) is 100 mg/kg-day. Moreover, the NOAEL in the series on Mus musculus [14] (developmental, duration: 364 days) is 26 mg/kg-day; with Rattus norvegicus [1] (developmental, Renal damage (hydronephrosis, urethral dilatation, obstruction and/or presence of calculi) and reduced grip strength, but not cognitive …), 30 mg/kg-day. Also, the LOEL in the series with Dog, Mouse, Rat is 50 mg/kg-day and 75 mg/kg-day. Also, the “LOAEL (mg Al/kg-day)” value in the series on Mus musculus [15] was 100.
